The values below come from patent US20100009935A1, “RESISTANCE-REPELLENT […] INHIBITORS” (priority 2002, published 2010).

Holding throughout (type): cell-based
In one assay the test system is HIV-1LAI. Kind of assay: microbe, parasite or virus in culture. The following applies: day 7, read-out: MEAN IC50 (μM) ± SDs. How it is done: (§1) The sensitivities of HIV-1LAI, HIV-1Ba-L, HIV-2EHO and the primary HIV-1 isolates against various drugs were determined as previously described with minor modifications (Shiraska et al., Proc. Natl. Acad. Sci. USA, 92, 2398-2402 (1995)).

The test system of the next assay is HIV-1Ba-L. Kind of assay: microbe, parasite or virus in culture. The following applies: Human immunodeficiency virus 1, 168 h, PBNC (PHA-PBMC), p24 production, day 7, read-out: MEAN IC50 (μM) ± SDs. How it is done: as §1
For the next assay, the system named is HIV-1 clinical isolate 7. Kind of assay: PI sensitivity of PI-resistant clinical isolate 7 in PHA-PBMC, p24. The note with it: for IC50: Human immunodeficiency virus 1, isolate 7: L10I, L24I, L33F, E35D, H36I, H37S, N46L, I54V, R57K, I62V, L63P, A71V, G73S, V82A, PHA-PBMC, p24.
The next assay relates to HIV-1NL4-3. The note with it: for IC50: Human immunodeficiency virus 1, MT2, 168 h, HIV-1NL4-3 (wild type), MT-2 cells, MTT assay, day 7. A general note: Formazan colour is commonly taken as a measure of viable cells.
Assay [1] deals with highly cross-resistant HIV-1 strains derived from AIDS patients.
Assay [2] has as its system HIV-1ERS104pre (wild-type clinical strain). Put plainly: PI sensitivity of wild-type clinical isolate in PHA-PBMC, p24.
A further assay relates to HIV-1 clinical isolate 3. Kind of assay: PI sensitivity of PI-resistant clinical isolate 3 in PHA-PBMC, p24. The following applies: for IC50: isolate 3: L10I, I15V, E35D, N37E, K45R, I54V, L63P, A71V, V82I, L90N, I93L, C95F, PHA-PBMC, p24.
In another assay the test system is HIV-1 clinical isolate 4. Put plainly: PI sensitivity of PI-resistant clinical isolate 4 in PHA-PBMC, p24. The note with it: for IC50: isolate 4: L10I, V11I, T12E, I15V, L19I, B41K, H46L, L63P, A71T, V82A, L90M, PHA-PBMC, p24.
A further assay deals with HIV-1 clinical isolate 8. Put plainly: PI sensitivity of PI-resistant clinical isolate 8 in PHA-PBMC, p24. The note with it: for IC50: isolate 8: L10R, H37D, N46I, I62V, L63P, A71V, G73S, V77I, V82T, L90M, I93L, PHA-PBMC, p24.
A further assay concerns HIV-1 clinical isolate 5. Put plainly: PI sensitivity of PI-resistant clinical isolate 5 in PHA-PBMC, p24. The note with it: for IC50: isolate 5: L10I, K43T, N46L, I54L, L63P, A71T, V82A, L90N, D92K, PHA-PBMC, p24.
The next assay relates to HIV-2EHO. Kind of assay: Drug sensitivity of HIV-2EHO in MT-2 cells, MTT assay. The note with it: HT-2 (footnote: MT-2 cells), day 7, read-out: MEAN IC50 (μM) ± SDs. How it is done: as §1
The subject of a further assay is HIV-1APV-P30. Put plainly: PI sensitivity of APV-selected HIV-1APV-P30 in MT-2 cells, MTT assay.
The next assay relates to HIV-1UIC-P62. Kind of assay: PI sensitivity of compound 1-selected HIV-1UIC-P62 in MT-2 cells, MTT assay. The note with it: HIV-1UIC-P62 (L10F, A28S, M46I, I50V, A71V, N88D), day 7.
The next assay relates to HIV-1 clinical isolate 2. Kind of assay: PI sensitivity of PI-resistant clinical isolate 2 in PHA-PBMC, p24. The following applies: for IC50: isolate 2: L10I, I15V, K20R, N36I, H46L, I54V, K55R, I62V, L63P, K70D, V82A, L89N, PHA-PBMC, p24.
A further assay concerns HIV-1 clinical isolate 6. Put plainly: PI sensitivity of PI-resistant clinical isolate 6 in PHA-PBMC, p24. The following applies: for IC50: Human immunodeficiency virus 1, isolate 6: L10I, K14R, B41K, H46L, I54V, L63P, A71V, V82A, L90M, I93L, PHA-PBMC, p24.
A further assay relates to HIV-1 clinical isolate 1. Put plainly: PI sensitivity of PI-resistant clinical isolate 1 in PHA-PBMC, p24. The following applies: for IC50: Human immunodeficiency virus 1, isolate 1: L10I, K14R, L33I, N36I, H46I, F53L, K55R, I62V, L63P, A71V, G73S, V82A, L90M, I93L, PHA-PBMC, p24.
[3] abbreviates: Human immunodeficiency virus 1, 168 h, PBMC (PHA-PBMC), p24 production.
Where [4] appears, read: Human immunodeficiency virus 1, MT2, 168 h, HT-2 (footnote: MT-2 cells), MTT assay.
[5] abbreviates: multidrug resistant patient isolates.
[6] abbreviates: Human immunodeficiency virus 1, read-out: IC50 μM.
Where [7] appears, read: Human immunodeficiency virus 2, MT2, 168 h.
[8] abbreviates: Human immunodeficiency virus 1, MT2, 168 h.

Where two headings read alike, the source gives them in different places. Some results are limits rather than exact numbers.

For the molecule `CC(C)CN(C[C@@H](O)[C@H](Cc1ccccc1)NC(=O)O[C@H]1CCOC1)S(=O)(=O)c1ccc(N)cc1` [APV, Amprenavir], the IC50 (in general, the concentration that inhibits the measured activity by half) with HIV-1LAI (setting [3]) is 0.017 ± 0.003 µM; in the assay on HIV-1LAI (setting [4]) it was 0.041 ± 0.01 µM; with HIV-1Ba-L it was 0.023 ± 0.009 µM; with HIV-1 clinical isolate 7, 490 nM; in the assay on HIV-1NL4-3 it was 42 nM; in [2] (setting [6]) it was 0.025 µM. The IC50 was 260 nM in the assay with HIV-1 clinical isolate 3 (Human immunodeficiency virus 1); 310 nM in the assay on HIV-1 clinical isolate 4 (Human immunodeficiency virus 1); 150 nM with HIV-1 clinical isolate 8 (Human immunodeficiency virus 1); 670 nM in the assay with HIV-1 clinical isolate 5 (Human immunodeficiency virus 1); 0.53 ± 0.03 µM in the assay with HIV-2EHO (setting [7]); more than 1000 nM in the assay with HIV-1APV-P30 (setting [8]). In addition, the IC50 in the assay on HIV-1UIC-P62 (setting [8]) worked out at 830 nM; in the assay on HIV-1 clinical isolate 2 (Human immunodeficiency virus 1), 280 nM; in the assay on HIV-1 clinical isolate 6 it was 160 nM; with HIV-1 clinical isolate 1, 270 nM. Further, in [1] (setting [5]), the “antiviral activity against patient isolates with multiple mutations compared with wild type HIV strains (in words)” value is recorded as “much less effective”.
In the case of `Cc1cn([C@H]2C[C@H](N=[N+]=[N-])[C@@H](CO)O2)c(=O)[nH]c1=O` [AZT, 3′-azido-2′,3′-dideoxythymidine], the IC50 amounted to 0.003 ± 0.0002 µM with HIV-1LAI (setting [3]), 0.024 ± 0.003 µM with HIV-1LAI (setting [4]), 0.011 ± 0.007 µM with HIV-1Ba-L and 0.003 ± 0.001 µM in the assay on HIV-2EHO (setting [7]).
On to `Nc1ccn([C@@H]2CS[C@H](CO)O2)c(=O)n1` [Compound 3TC, LAMIVUDINE], for which the IC50 was determined as 0.021 ± 0.018 µM in the assay with HIV-1LAI (setting [3]), 0.66 ± 0.01 µM in the assay on HIV-1LAI (setting [4]), 0.054 ± 0.046 µM in the assay with HIV-1Ba-L and 0.4 ± 0.25 µM in the assay with HIV-2EHO (setting [7]).
In the case of `CC(C)(C)NC(=O)[C@@H]1CN(Cc2cccnc2)CCN1C[C@@H](O)C[C@@H](Cc1ccccc1)C(=O)N[C@H]1c2ccccc2C[C@H]1O` [IDV, Indinavir], the IC50 in the assay on HIV-1LAI (setting [3]) was 0.015 ± 0.004 µM; in the assay with HIV-1LAI (setting [4]), 0.019 ± 0.009 µM; with HIV-1Ba-L, 0.017 ± 0.011 µM; with HIV-1 clinical isolate 7, more than 1000 nM; in the assay on HIV-1NL4-3, 11 nM; in assay [2] (setting [6]) it was 0.013 µM. Moreover, the IC50 with HIV-1 clinical isolate 3 (Human immunodeficiency virus 1) is 490 nM; with HIV-1 clinical isolate 4 (Human immunodeficiency virus 1), 210 nM; in the assay on HIV-1 clinical isolate 8 (Human immunodeficiency virus 1), 550 nM; in the assay with HIV-1 clinical isolate 5 (Human immunodeficiency virus 1), more than 1000 nM; with HIV-2EHO (setting [7]), 0.01 ± 0.004 µM; in the assay with HIV-1APV-P30 (setting [8]), 320 nM. Besides, the IC50 in the assay on HIV-1UIC-P62 (setting [8]) was 80 nM; with HIV-1 clinical isolate 2 (Human immunodeficiency virus 1), 490 nM; with HIV-1 clinical isolate 6, 300 nM; with HIV-1 clinical isolate 1 it was more than 1000 nM. Besides, the “FOLD CHANGE of IC50” value is “(>77) fold” with HIV-1 clinical isolate 7 (isolate 7 compared to HIV-1wt (HIV-1ERS104pre)); “(1) fold” in the assay with HIV-1NL4-3 (HIV-1NL4-3, reference (=1)); “(1) fold” in assay [2] (wild type HIV-1ERS104pre, reference (=1)); “(38) fold” with HIV-1 clinical isolate 3 (isolate 3 compared to HIV-1wt (HIV-1ERS104pre)); “(16) fold” with HIV-1 clinical isolate 4 (isolate 4 compared to HIV-1wt (HIV-1ERS104pre)); “(42) fold” with HIV-1 clinical isolate 8 (isolate 8 compared to HIV-1wt (HIV-1ERS104pre)). Besides, the “FOLD CHANGE of IC50” value in the assay on HIV-1 clinical isolate 5 (isolate 5 compared to HIV-1wt (HIV-1ERS104pre)) is “(>77) fold”; with HIV-1APV-P30 (HIV-1APV-P30 compared to HIV-1NL4-3 (wild type)), “(30) fold”; with HIV-1 clinical isolate 2 (isolate 2 compared to HIV-1wt (HIV-1ERS104pre)) it was “(38) fold”; in the assay on HIV-1 clinical isolate 6 (isolate 6 compared to HIV-1wt (HIV-1ERS104pre)), “(23) fold”; in the assay on HIV-1 clinical isolate 1 (isolate 1 compared to HIV-1wt (HIV-1ERS104pre)), “(>77) fold”. Moreover, the “antiviral activity against patient isolates with multiple mutations compared with wild type HIV strains (in words)” value in assay [1] is listed as “dramatically less potent”.
On to `Cc1c(O)cccc1C(=O)N[C@@H](CSc1ccccc1)[C@H](O)CN1C[C@H]2CCCC[C@H]2C[C@H]1C(=O)NC(C)(C)C` [NFV, Nelfinavir], for which the IC50 in the assay on HIV-1LAI (setting [3]) is 0.009 ± 0.0003 µM; in the assay on HIV-1LAI (setting [4]) it was 0.005 ± 0.002 µM; in the assay on HIV-1 clinical isolate 7, more than 1000 nM; with HIV-1NL4-3, 23 nM; in assay [2] (setting [6]) it was 0.023 µM; with HIV-1 clinical isolate 3 (Human immunodeficiency virus 1) it was more than 1000 nM. In addition, the IC50 was 90 nM with HIV-1 clinical isolate 4 (Human immunodeficiency virus 1); more than 1000 nM with HIV-1 clinical isolate 8 (Human immunodeficiency virus 1); 410 nM with HIV-1 clinical isolate 5 (Human immunodeficiency virus 1); 0.02 ± 0.01 µM in the assay on HIV-2EHO (setting [7]); more than 1000 nM in the assay on HIV-1APV-P30 (setting [8]); 110 nM with HIV-1UIC-P62 (setting [8]). For the same molecule, the values for the half-inhibitory concentration (IC50) in the assay with HIV-1 clinical isolate 2 (Human immunodeficiency virus 1), in the assay on HIV-1 clinical isolate 6 and in the assay on HIV-1 clinical isolate 1 were 330 nM, more than 1000 nM and more than 1000 nM, respectively. Further, the “antiviral activity against patient isolates with multiple mutations compared with wild type HIV strains (in words)” value in [1] (setting [5]) was “dramatically less potent”.
On to `COc1ccc(S(=O)(=O)N(CC(C)C)C[C@@H](O)[C@H](Cc2ccccc2)NC(=O)O[C@H]2CO[C@H]3OCC[C@H]32)cc1` [UIC-94003], for which the IC50 in assay [1] (eight highly PI-resistant clinical isolates, PHA-PBMC, read-out: IC50 values, range over all eight isolates) was 0.5 to 5.5 nM; in [2] (wild type HIV-1ERS104pre (L63P), PHA-PBMC, p24, read-out: IC50) it was 0.0007 µM; in the assay with HIV-1 clinical isolate 3, 1 nM; with HIV-1 clinical isolate 4, 1.6 nM; in the assay with HIV-1 clinical isolate 8 it was 1 nM; in the assay with HIV-1 clinical isolate 5, 2.4 nM. Moreover, the IC50 in the assay with HIV-2EHO came out at 0.0005 ± 7e-05 µM; in the assay with HIV-1APV-P30 (HIV-1APV-P30 (L10F, V32I, M46I, I54M, A71V, I84V), MT-2 cells, MTT assay, day 7, read-out: IC50) it was 29 nM; in the assay on HIV-1UIC-P62, 21 nM; with HIV-1 clinical isolate 2, 1.3 nM. Further, the “antiviral activity against patient isolates with multiple mutations compared with wild type HIV strains (in words)” value in assay [1] (setting [5]) was “equivalent”.
In the case of `OC[C@@H]1CC[C@H](n2cnc3c(O)ncnc32)O1` [ddI, 2′,3′-dideoxyinosine], the IC50 was determined as 0.62 ± 0.02 µM with HIV-1LAI (setting [3]), 3.4 ± 0.2 µM in the assay on HIV-1LAI (setting [4]), 1.5 ± 1.1 µM in the assay with HIV-1Ba-L and 2.8 ± 0.6 µM in the assay with HIV-2EHO (setting [7]).
